Assay results as given in PMC6449538, “Antimicrobial Activity of Selected Antimicrobial Peptides Against Planktonic Culture and Biofilm of Acinetobacter baumannii” (Probiotics and Antimicrobial Proteins, 2018).
In brackets after ≈: the same amount, converted by molar mass. Like-named read-outs stand apart in the source and are kept apart here. Where no end group is shown, it is not given here.

Tests used:
A. baumannii ATCC 19606 = test: microbe, parasite or virus in culture; assay type: cell-based, Acinetobacter baumannii
Method: (§1) The A. baumannii ATCC 19606 strain was acquired from the American Type Culture Collection and prepared in line with the manufacturer’s instructions. The culture was stored in Roti®-Store Cryo-Vials (Carl Roth GmbH, Karlsruhe, Germany) at − 20 °C. Before the tests, the bead with cryo-protected bacteria was transferred into fresh MHB (Biocorp, Warsaw, Poland) and incubated for 24 h at 37 °C. Then, the culture was seeded on MHA plates and incubated as just mentioned. The agar cultures prepared in this way were used for further experiments. Cell densities for all assays were adjusted spectrophotometrically (Multiskan™ GO Microplate Spectrophotometer, Thermo Scientific) at 600 nm.
The MICs and MBCs were determined with the reference to the Clinical and Laboratory Standards Institute guidelines. MICs were determined by broth microdilution method. For this purpose, initial inoculums of bacteria (0.5 × 10^5 CFU/mL) in MHB were exposed to a series of concentrations (0.5–256 μg/mL) of the compounds and incubated for 18 h at 37 °C. The experiments were conducted on 96-well microtiter polystyrene plates with the final volume of 100 μL. The MIC was taken as the lowest drug concentration at which a noticeable growth of microorganisms was inhibited. In parallel, the MIC wells, two above and one below (positive control), were cultured on a MHA plate. […] All experiments were conducted in triplicate.

[1] = system: A. baumannii ATCC 19606 biofilm; assay type: cell-based, Acinetobacter baumannii
Method: as §1
The antibiofilm activity was determined on 96-well flat-bottomed microtiter polystyrene plates and 0.5-cm fragments of tracheal tubes (RIM-75, ZARYS International Group, Zabrze, Poland), with resazurin (7-hydroxy-3H-phenoxazin-3-one 10-oxide) as a cell viability reagent. The first part included assay on 96-well plates. To do this, the plates were filled with 100 μL of the initial inoculums of bacteria (0.5 × 10^7 CFU/mL) in the MHB and incubated for 24 h at 37 °C. Then, the wells were rinsed three times with PBS to remove non-adhered cells and the fresh medium with a series of concentrations (0.5–256 μg/mL) of the compounds was added. After 24 h of incubation, 20 μL of resazurin (4 mg/mL) was added to each well and the MBEC values were read. The assay on tracheal tube fragments was conducted using 24-well polystyrene plates. Briefly, the tracheal tube fragments were dipped in 1 mL of the bacterial inoculum (0.5 × 10^7 CFU/mL) and incubated at 37 °C. After 24 h of incubation, the test fragments were rinsed three times with PBS and transferred into other wells containing the fresh medium with a series of concentrations of the test compounds. Subsequently, the plates were incubated again for 24 h at 37 °C. Then, 200 μL of resazurin was added and the MBEC was read. All experiments were conducted in triplicate.

[2] = MIC wells cultured on MHA plate, 24 h at 37 °C, no visible growth, triplicate
[3] = broth microdilution (CLSI), MHB, inoculum 0.5 × 10^5 CFU/mL, 18 h at 37 °C, polystyrene 96-well plates, triplicate
[4] = 24 h biofilm on 0.5-cm tracheal tube fragments, 24 h treatment at 37 °C, resazurin read-out, triplicate
[5] = 24 h biofilm on polystyrene 96-well plates, 24 h treatment at 37 °C, resazurin read-out, triplicate
[6] = Acinetobacter baumannii, ATCC19606, MIC wells cultured on MHA plate, 24 h at 37 °C, no visible growth, triplicate, read-out: MBC
[7] = Acinetobacter baumannii, ATCC19606, broth microdilution (CLSI), MHB, inoculum 0.5 × 10^5 CFU/mL, 18 h at 37 °C, polystyrene 96-well plates, triplicate, read-out: MIC

Row | Compound | MBC (A. baumannii ATCC 19606; [2]) | MIC (A. baumannii ATCC 19606; [3]) | MBEC^tt [1, 4] | MBEC [1, 5] | MBC (A. baumannii ATCC 19606; [6]) | MIC (A. baumannii ATCC 19606; [7]) | MIC (A. baumannii ATCC 19606; ATCC 19606, 18 h) | MBC (A. baumannii ATCC 19606; ATCC 19606, 24 h) | MBEC ([1]; ATCC 19606, 24 h) | MBEC^tt ([1]; ATCC 19606, 24 h) | MBEC^tt ([1]; 24 h biofilm on 0.5-cm tracheal tube fragments, 24 h treatment at 37 °C, resazurin read-out, triplicate, listed as piperacillin)
1 | GLFDIIKKIAESF-NH2 [Aurein 1.2] | 16 µg/mL | 16 µg/mL | 32 µg/mL | 64 µg/mL |  |  |  |  |  |  | 
2 | CNC(C)C1CCC(N)C(OC2C(N)CC(N)C(OC3OCC(C)(O)C(NC)C3O)C2O)O1 (stereo not drawn) [Gentamicin, reference compound] |  |  | 32 µg/mL | 32 µg/mL | 32 µg/mL (≈ 67 µM) | 16 µg/mL (≈ 33.5 µM) |  |  |  |  | 
3 | O=C(O)c1cn(C2CC2)c2cc(N3CCNCC3)c(F)cc2c1=O [Ciprofloxacin, reference compound] |  |  | 1 µg/mL | 2 µg/mL | 1 µg/mL (≈ 3.02 µM) |  |  |  |  |  | 
4 | ILRWPWWPWRRK-NH2 [Omiganan] |  |  |  |  |  |  | 32 µg/mL | 64 µg/mL | 256 µg/mL | 128 µg/mL | 
5 | GLFDVIKKVASVIGGL-NH2 [Citropin 1.1] |  |  |  |  |  |  | 16 µg/mL | 16 µg/mL | 256 µg/mL | 32 µg/mL | 
6 | KWKLFKKIGAVLKVL-NH2 [CAMEL] | 4 µg/mL | 2 µg/mL | 64 µg/mL | 128 µg/mL |  |  |  |  |  |  | 
7 | KRRWPWWPWRLI-NH2 [r-Omiganan] |  |  |  |  |  |  | 16 µg/mL | 16 µg/mL | 256 µg/mL | 128 µg/mL | 
8 | CCN1CCN(C(=O)N[C@@H](C(=O)N[C@@H]2C(=O)N3[C@@H]2SC(C)(C)[C@@H]3C(=O)O)c2ccccc2)C(=O)C1=O [Piperacillin, reference compound] |  |  | > 512 µg/mL | failed to eradicate the biofilm at any concentration | 128 µg/mL (≈ 247 µM) | 64 µg/mL (≈ 124 µM) |  |  |  |  | failed to eradicate the biofilm at any concentration
9 | FLPLIGRVLSGIL-NH2 [Temporin A] |  |  |  |  |  |  | 128 µg/mL | 128 µg/mL |  | 256 µg/mL | 
10 | CC[C@H]1OC(=O)[C@H](C)[C@@H](O[C@H]2C[C@@](C)(OC)[C@@H](O)[C@H](C)O2)[C@H](C)[C@@H](O[C@@H]2O[C@H](C)C[C@H](N(C)C)[C@H]2O)[C@](C)(O)C[C@@H](C)C(=O)[C@H](C)[C@@H](O)[C@]1(C)O [Erythromycin, reference compound] |  |  | 16 µg/mL | 32 µg/mL | 32 µg/mL (≈ 43.6 µM) | 32 µg/mL (≈ 43.6 µM) |  |  |  |  | 
11 | CO[C@H]1/C=C/O[C@@]2(C)Oc3c(C)c(O)c4c(O)c(c(/C=N/N5CCN(C)CC5)c(O)c4c3C2=O)NC(=O)/C(C)=C\C=C\[C@H](C)[C@H](O)[C@@H](C)[C@@H](O)[C@@H](C)[C@H](OC(C)=O)[C@@H]1C [Rifampicin, reference compound] |  |  | 4 µg/mL | 8 µg/mL | 4 µg/mL (≈ 4.86 µM) | 4 µg/mL (≈ 4.86 µM) |  |  |  |  | 
12 | GIGKFLKKAKKFGKAFVKILKK-NH2 [Pexiganan] |  |  |  |  |  |  | 2 µg/mL | 4 µg/mL | 256 µg/mL | 32 µg/mL | 
13 | CN(C)[C@@H]1C(O)=C(C(N)=O)C(=O)[C@@]2(O)C(O)=C3C(=O)c4c(O)cccc4[C@@](C)(O)[C@H]3C[C@@H]12 [Tetracycline, reference compound] |  |  | 4 µg/mL | 16 µg/mL | 4 µg/mL (≈ 9 µM) | 2 µg/mL (≈ 4.5 µM) |  |  |  |  | 
